The values below come from ChEMBL document CHEMBL1201862, “PubChem BioAssay data set” (2004).

The source made the active and inactive calls.

Common to all, as to type: functional
The target of test [1] is T1, Type-1 angiotensin II receptor (Homo sapiens, UniProt P30556).
T1 sequence (P30556 whole entry): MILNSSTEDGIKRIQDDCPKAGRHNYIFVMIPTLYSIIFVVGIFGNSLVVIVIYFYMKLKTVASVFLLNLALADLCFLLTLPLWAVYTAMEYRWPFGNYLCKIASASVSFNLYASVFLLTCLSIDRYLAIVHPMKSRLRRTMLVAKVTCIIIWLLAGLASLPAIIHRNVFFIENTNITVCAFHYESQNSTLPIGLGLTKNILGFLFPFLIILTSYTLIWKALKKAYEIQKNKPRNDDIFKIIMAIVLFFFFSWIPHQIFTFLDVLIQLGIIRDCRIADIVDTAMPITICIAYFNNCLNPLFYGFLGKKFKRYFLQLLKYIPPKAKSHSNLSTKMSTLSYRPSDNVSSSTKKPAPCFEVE
Kind of test: AT1 receptor agonists, dose response, selectivity assay for APJ receptor agonist project, cell-based, uHTS hits (AID 488865).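 Also: beta-arrestin recruitment to AT1 measured by enzyme fragment complementation luminescence.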

The target of test [2] is T2, Hexokinase HKDC1 (Homo sapiens, UniProt Q2TB90).
T2 sequence (Q2TB90 whole entry): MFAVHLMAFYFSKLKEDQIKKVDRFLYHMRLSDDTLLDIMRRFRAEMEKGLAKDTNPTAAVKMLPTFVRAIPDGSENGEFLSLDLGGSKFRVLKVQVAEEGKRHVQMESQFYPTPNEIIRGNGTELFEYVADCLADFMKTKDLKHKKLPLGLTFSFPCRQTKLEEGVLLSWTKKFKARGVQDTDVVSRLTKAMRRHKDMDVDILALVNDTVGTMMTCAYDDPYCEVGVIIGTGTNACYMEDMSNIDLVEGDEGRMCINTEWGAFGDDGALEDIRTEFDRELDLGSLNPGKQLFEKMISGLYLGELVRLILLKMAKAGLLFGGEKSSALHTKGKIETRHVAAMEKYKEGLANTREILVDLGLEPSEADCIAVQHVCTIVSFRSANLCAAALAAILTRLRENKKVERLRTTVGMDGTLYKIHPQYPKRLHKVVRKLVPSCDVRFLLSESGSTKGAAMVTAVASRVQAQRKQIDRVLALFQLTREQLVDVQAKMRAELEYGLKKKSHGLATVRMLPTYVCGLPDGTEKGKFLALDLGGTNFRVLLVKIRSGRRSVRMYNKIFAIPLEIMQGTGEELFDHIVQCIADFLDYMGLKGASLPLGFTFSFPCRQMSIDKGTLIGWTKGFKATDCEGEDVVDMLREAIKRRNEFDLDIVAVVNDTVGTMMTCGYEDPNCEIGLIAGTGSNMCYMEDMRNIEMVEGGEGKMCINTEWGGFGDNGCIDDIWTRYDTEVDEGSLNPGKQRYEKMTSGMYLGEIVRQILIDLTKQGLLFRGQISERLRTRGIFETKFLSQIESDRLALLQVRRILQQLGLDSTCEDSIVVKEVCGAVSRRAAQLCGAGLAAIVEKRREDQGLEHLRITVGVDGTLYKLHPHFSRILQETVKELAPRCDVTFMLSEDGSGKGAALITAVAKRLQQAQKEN
Kind of test: HKDC1 hexokinase activators, dose response, biochemical, W721R variant (AID 504730).

Test [3] concerns the target Hexokinase-1 (Homo sapiens, UniProt P19367). Kind of test: hexokinase 1 activators, dose response, selectivity assay for HKDC1 activator project, biochemical (AID 504762).
Test [4] deals with T3, Ubiquitin-conjugating enzyme E2 N (Homo sapiens, UniProt P61088).
T3 sequence (P61088 whole entry): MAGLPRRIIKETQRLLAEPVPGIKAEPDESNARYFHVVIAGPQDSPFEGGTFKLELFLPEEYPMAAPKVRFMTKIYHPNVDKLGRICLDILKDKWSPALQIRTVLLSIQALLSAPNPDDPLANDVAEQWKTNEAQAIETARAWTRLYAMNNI

The target in test [5] is T4, Bcl-2-related protein A1 (Mus musculus, UniProt Q07440).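 Also: confirmatory dose–response counterscreen on Bfl-1, used to check hits from a UBC13 polyubiquitin inhibitor campaign.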
T4 sequence (Q07440 whole entry): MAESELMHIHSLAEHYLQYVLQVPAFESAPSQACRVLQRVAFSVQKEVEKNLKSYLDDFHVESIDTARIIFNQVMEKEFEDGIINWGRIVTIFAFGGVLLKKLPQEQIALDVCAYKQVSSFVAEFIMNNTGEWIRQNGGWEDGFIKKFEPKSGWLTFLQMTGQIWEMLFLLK

The target of test [6] is T3, Ubiquitin-conjugating enzyme E2 N. This is another data set of the same source.
A short description of test [7]: Luminescence Cell-Based Dose Response HTS to Identify Activators of Luciferase Translation or Activity in H4-C Neuroglioblastoma Cells. [Related pubchem assays: 1829 (Project Summary), 1814 (Primary HTS)].
Test [8] can be described thus: Luminescence Cell-Based Dose Retest to Confirm Activators of 5'UTR Stem-Loop Driven Alpha-Synuclein mRNA Translation in H4 Neuroglioblastoma Cells. [Related pubchem assays (depositor defined):AID1813, AID1829].
Test [9] can be described thus: Luminescence Cell-Based Dose Response HTS to Identify Inhibitors of Luciferase Translation or Activity in H4-C Neuroglioblastoma Cells. [Related pubchem assays: 1813 (Primary HTS), 1827 (Project Summary)].
Test [10] in a line: Luminescence Cell-Based Dose Response HTS to Identify Activators of 5'UTR Stem-Loop Driven Prion Protein mRNA Translation in H4-C Neuroglioblastoma Cells. [Related pubchem assays: 1829 (Project Summary), 1814 (Primary HTS)].
The nature of test [11]: Luminescence Cell-Based Dose HTS Response to Identify Inhibitors of 5'UTR Stem-Loop Driven Prion Protein mRNA Translation in H4-C Neuroglioblastoma Cells. [Related pubchem assays (depositor defined):AID1814, AID1827].
The nature of test [12]: Luminescence Cell-Based Dose Confirmation HTS to Identify Inhibitors of 5'UTR Stem-Loop Driven Alpha-Synuclein mRNA Translation in H4 Neuroglioblastoma Cells. [Related pubchem assays: 1827 (Project Summary), 1813 (Primary HTS)].

Hexokinase-1, sequence (P19367 whole entry): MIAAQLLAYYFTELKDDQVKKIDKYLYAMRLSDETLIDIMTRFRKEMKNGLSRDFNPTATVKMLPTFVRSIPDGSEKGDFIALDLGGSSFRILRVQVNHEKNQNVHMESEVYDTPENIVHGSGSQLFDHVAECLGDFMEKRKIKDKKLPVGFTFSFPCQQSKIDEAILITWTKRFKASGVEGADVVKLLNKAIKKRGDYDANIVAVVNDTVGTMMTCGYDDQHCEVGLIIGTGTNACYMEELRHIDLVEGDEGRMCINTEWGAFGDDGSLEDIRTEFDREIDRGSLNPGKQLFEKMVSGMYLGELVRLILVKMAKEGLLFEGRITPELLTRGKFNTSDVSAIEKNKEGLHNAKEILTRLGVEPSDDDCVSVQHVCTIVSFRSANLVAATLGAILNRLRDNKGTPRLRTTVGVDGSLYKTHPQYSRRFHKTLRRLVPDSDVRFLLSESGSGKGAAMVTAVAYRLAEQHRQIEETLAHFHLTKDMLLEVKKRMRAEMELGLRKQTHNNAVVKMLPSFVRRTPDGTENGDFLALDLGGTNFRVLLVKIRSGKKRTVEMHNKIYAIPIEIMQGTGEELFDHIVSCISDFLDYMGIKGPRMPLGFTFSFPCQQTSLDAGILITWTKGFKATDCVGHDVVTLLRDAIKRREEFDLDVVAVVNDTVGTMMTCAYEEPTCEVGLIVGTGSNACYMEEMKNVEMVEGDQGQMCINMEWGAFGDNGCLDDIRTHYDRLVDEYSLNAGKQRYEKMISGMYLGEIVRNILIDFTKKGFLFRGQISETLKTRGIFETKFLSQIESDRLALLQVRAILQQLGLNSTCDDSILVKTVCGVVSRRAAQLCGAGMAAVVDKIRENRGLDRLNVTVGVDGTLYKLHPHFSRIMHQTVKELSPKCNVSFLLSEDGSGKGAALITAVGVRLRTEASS

What is called EC50 is the midpoint of the concentration-response curve. Take `CC1CCN(S(=O)(=O)c2ccc3nc(N4CCN(c5ccccc5)CC4)ccc3c2)CC1`: the EC50 in test [1] is > 100 µM (inactive).
For the compound `CCc1c(C)c(C#N)c2nc3ccccc3n2c1NC`, the EC50 in test [2] was 44.8 µM (inactive); in test [3] it was 21.1 µM (inactive).
Usually IC50 stands for the point on the concentration scale where inhibition reaches its midpoint. For `CN(C)CCCN(C(=O)c1ccc(S(=O)(=O)N2CCCCCC2)cc1)c1nc2ccc(Br)cc2s1`, the IC50 was 13.4 µM (active) in test [4], > 20 µM (inactive) in test [5] and 10.3 µM (active) in test [6].
With `COC(=O)c1c(NC(=O)c2ccc([N+](=O)[O-])o2)sc2c1CCN(C(C)C)C2`, the EC50 in test [7] is 2.12 µM (inconclusive); in [8], 1.88 µM (inconclusive); in test [9], 1.33 µM (active); in test [10], 2.23 µM (inconclusive); in test [11], 2.94 µM (active); in test [12], 3.35 µM (active).
